Assay results reported in patent publication US20110034557A1, “ANTIMICROBIAL COMPOSITIONS AND USES THEREOF” (MODULAR GENETICS, INC., priority 2009, published 2011).
Residues, ends and D or L forms follow the SMILES beside them.

Test system: S. aureus (ATCC 6538)
Experiment: Disk assay of growth inhibition of S. aureus on agar plates
Assay type: cell-based, Staphylococcus aureus
Description: The ability of FA-Glu to inhibit the growth or kill S. aureus (ATCC 6538) was examined.
S. aureus was grown in liquid culture in either Tryptic Soy Broth (TSB; Sigma), which contains casein peptone 17 g/l, soya peptone 3 g/l, sodium chloride 5 g/l, dipotassium hydrogen phosphate 2.5 g/l, and glucose 2.5 g/l or M9YE (disodium hydrogen phosphate 6 g/l, monopotassium phosphate 3 g/l, sodium chloride 0.5 g/l, ammonium chloride 1 g/l, yeast extract 3 g/l, glucose 5 g/l, and casamino acids 10 g/l) at 30° C. Disk assays were carried out on M9YE plates (M9YE liquid media plus 15 g/l agar) and YPD plates (peptone 20 g/l, yeast extract 10 g/l, glucose 20 g/l, agar 15 g/l). S. aureus was plated out evenly using a sterile cotton swab. Blank Paper disks 6 mm were placed into a sterile container and then different dilutions of FA-Glu (25 ug, 100 ug, 300 ug) that had been re-suspended in a diluted aqueous solution containing ammonium hydroxide (pH 10.2) were added to the disks. The disks were allowed to absorb and dry. Using sterile tweezers, the disks were placed onto the plates that had been swabbed with Staphylococcus aureus. They were then incubated at 28° C. over approximately 65 hours.
Disk assays were repeated as above using a commercially available acyl amino acid, cocoyl glutamate (Ajinomoto, Japan).

Compound	halo formation around disk (control experiment) (300 ug absorbed onto a disk)	regrowth in halos (disk assay plates)	halo formation around disk (disk assays repeated as above)	halo size relative to FA-Glu (same concentration and same conditions as FA-Glu)
CC(C)CCCCCCCCC[C@@H]1CC(=O)N[C@@H](CCC(=O)O)C(=O)N[C@@H](CC(C)C)C(=O)N[C@H](CC(C)C)C(=O)N[C@@H](C(C)C)C(=O)N[C@@H](CC(=O)O)C(=O)N[C@H](CC(C)C)C(=O)N[C@@H](CC(C)C)C(=O)O1 [surfactin, reference compound] (HELM PEPTIDE1{E.L.[dL].V.D.[dL].L}|CHEM1{[CC(C)CCCCCCCCC[C@H](CC(=O)[*:1])O[*:2]]}$PEPTIDE1,CHEM1,1:R1-1:R1|PEPTIDE1,CHEM1,7:R2-1:R2$$$V2.0)	produced a halo, but there was cell growth within the halo			
cocoyl glutamate [reference compound]		regrowth occurred	produced a halo	larger than halos observed using FA-Glu
